How the values were obtained:
[1] = test system: Brown Dog Tick (Rhipicephalus sanguineus); assay: Topical application on brown dog ticks, single dose screen (% mortality at 24 hours); type: in vivo; conditions: adult brown dog ticks, topical 1 μL in acetone on abdomen, single dose 10 μg per tick
Experimental: d) Topical Application On Brown Dog Ticks (Rhipicephalus sanguineus)
The aim of the test is to determine the presence of significant acaricidal activity in sample compounds or formulations when applied topically on brown dog ticks. A tick is defined as dead if it gives no apparent response when: (i) touched lightly and (ii) then observed for 1 minute. To assess the experimental compound for acaricidal activity, a single dose level is chosen based on known results from previous experiments with a commercially available active reference compound.
In the present example, both permethrin and fipronil were employed as reference compounds. The insect species tested was the Brown Dog Tick (Rhipicephalus sanguineus). Mixed sex adult ticks were used for tests. The strain used was cultured from a field strain and supplied as unfed adult ticks (mixed sex). Ticks were maintained in controlled conditions (temp. 18°±2° C., humidity 75±5% RH).
Test compounds (formulations or active ingredients) were stored in a refrigerator (5±1° C.) unless otherwise specified. The temperature was maintained at 25±1° C. and the humidity was ambient. The screening dose chosen was higher than that known kill 90% of insects (LD90) using the reference compound. In the case of topical application of active compounds on adult ticks, the reference compound was fipronil and the dose chosen was 10 μg of active per tick (=10 μg of fipronil/1 μl of acetone). Ticks were each treated on the abdomen with 1 μL of a single dose level of test sample in acetone; ten ticks were treated with solvent only (acetone) in each test. Tests were replicated 4 times (total of 40 ticks treated). Ticks were held in recovery containers maintained under appropriate rearing conditions for 24 hours. Mortality resulting from the treatments was recorded at 24 hours. Pooled 24 hour mortality data were converted to percentages.
(§1) In Table 7, provided below, are listed the Haemonchus contortus LD99 values (measured in micrograms/mL), the Ctenocephalides felis rapid screening values (measured in % mortality), the Ctenocephalides felis LC50 values (measured in micrograms/cm^2) and the Rhipicephalus sanguineus rapid screening values (measured in % mortality) for selected compounds in accordance with the present invention.

[2] = test system: cat flea (Ctenocephalides felis); assay: Ctenocephalides felis adulticide assay: dose response on treated glass surface (LC50, 24 hours); type: in vivo; conditions: adult cat fleas, 24 h mortality, probit analysis
Experimental: The LC50 value is the concentration, expressed as μg/cm^2, that was required to kill 50% of the sample of cat fleas on contact with the tested compound. Certain tests are also reported as the percent of a sample of cat fleas that were killed at a concentration of 1.26 μg/cm^2 (“% mortality”), for the compounds tested in this way.
c) Ctenocephalides felis Adulticide Assay: C. felis dose response The purpose of this example is to determine the LC50 when cat fleas are contacted with a glass surface treated with sample compounds or formulations prepared as described above. Mortality of fleas is defined as follows: fleas are considered dead if they don't move or are on their sides and unable to walk or right themselves. LC50: Lethal Concentration 50— concentration of glass surface treatment at which 50% of the cat fleas are killed.
The test species employed was the cat flea (Ctenocephalides felis). The strain used was obtained from external suppliers as pupae and held in the laboratory under testing conditions until the adults had emerged. Fifteen (15) fleas were used in a minimum of four replicates for each dose level (total of 60 fleas per dose level). The insects were selected to be in the adult life stage, aged between 3 and 7 days post emergence.
The compounds to be tested were dissolved in acetone just prior to testing. Samples of compounds were stored in a refrigerator (5±1° C.) unless otherwise specified. During the mortality testing, the temperature was maintained at 25±1° C. Humidity was maintained at 75±5%. The base (area=159 mm^2) of a 100 mL glass Erlenmeyer (conical) flask provided the treatment surface. Flasks were pre-treated with Coatasil™ glass treatment to maximise bio-availability of test compounds by preventing them from binding to the glass surface.
Six dose levels (concentrations) of test sample, in the form of a serial dilution, were derived from a pilot study and covered a range that produced very low to very high mortality. The base of the 100 mL Erlenmeyer flask was treated with 0.5 mL of test sample in acetone and gently swirled. This volume was sufficient to cover the base of the flask. Flasks were left to dry for 24 hours before flea exposure. Adult cat fleas were lightly anaesthetised by cooling and then placed into a sorting chamber, which allowed fleas to revive and jump into the Erlenmeyer flasks. Fifteen (15) adult cat fleas were collected in each flask. The top of the flasks were then covered in Parafilm™ and small holes made to allow gas exchange. A 0.5 mL volume of acetone was applied to the base of an Erlenmeyer flask and the testing proceeded in the same manner described above. Cat fleas in the treatment containers were held under testing conditions for 24 hours. Mortality resulting from the treatments was recorded at 24 hours. […] 3rd ed. Cambridge Univ. Press, London (1971)].
as §1

[3] = test system: cat flea (Ctenocephalides felis); assay: Ctenocephalides felis adulticide assay: single dose screen on treated glass surface (% mortality at 1.26 μg/cm^2, 24 hours); type: in vivo; conditions: for Ctenocephalides felis Mortality (%) 24 h: in vivo
[4] = test system: Haemonchus contortus; assay: Haemonchus contortus larvacidal (larval development) assay, LD99; type: in vitro
Experimental: The LD99 value is the dose, expressed as […], that was required to kill 99% of a sample of Haemonchus contortus.
a) Haemonchus Contortus Larvacidal Assay:
The effect of compounds on larval development was determined in the assay described by Gill et al. [International Journal of Parasitology 25:463-470 (1995)]. Briefly, in this assay, nematode eggs are applied to the surface of an agar matrix containing the test compound and then allowed to develop through to the L3, infective stage (6 days). The wells for each dilution of every compound (from highest to lowest concentration) are inspected to determine the well number corresponding to the lowest concentration at which development is inhibited in 99% of the nematode larvae present (LD99). Because well numbers correspond to a two-fold serial dilution of each compound, a titre (dilution factor) is generated as 2^n−1, where n is the well number. By dividing the highest concentration tested by the titre an LD99 value can be obtained, representing the concentration required to inhibit development in 99% of the nematode larvae present. The compounds supplied as solid and viscous liquids are dissolved in DMSO. Twelve serial one-half dilutions in DMSO solution are prepared from the stock solution, each of which is then diluted 1/5 with water. Aliquots (10 μl) of each dilution are transferred to the bioassay plates to give a final concentration range of 0.024 to 50 μg/ml.
as §1

| SMILES | Rhipicephalus sanguineus Mortality (%) 24 h [1] | Ctenocephalides felis LC50 [2] | Ctenocephalides felis Mortality (%) 24 h [3] | Haemonchus contortus LD99 [4] | mortality at 1.26 µg/cm2, 1.26 µg/cm2 ([3]; Ctenocephalides felis, 24 h, read-out: Ctenocephalides felis Mortality (%) 24 h) |
| --- | --- | --- | --- | --- | --- |
| O=S(=O)(Nc1cc(C(F)(F)F)ccc1Oc1cccc(C(F)(F)F)c1)C(F)(F)F [Compound 9] | 25% | 0.09 μg/cm^2 | 94% | 2.5 µg/mL | – |
| O=S(=O)(Nc1ccc(Cl)cc1Sc1ccc(Cl)cc1)C(F)(F)F [Compound 12, N-[4-Chloro-2-((4-chlorophenyl)sulfanyl)phenyl]-1,1,1-trifluoromethanesulfonamide] | 50% | 0.15 μg/cm^2 | – | 2.8 µg/mL | 100% |
| O=S(=O)(Nc1ccc(Cl)cc1Oc1ccccc1F)C(F)(F)F [Compound 14] | 98% | 0.05 μg/cm^2 | 100% | 13.0 µg/mL | – |
| O=S(=O)(Nc1ccc(Cl)cc1Sc1ccc(F)cc1)C(F)(F)F [Compound 20] | 95% | 0.13 μg/cm^2 | 100% | 13.0 µg/mL | – |
| Cc1ccccc1Oc1cc(Cl)ccc1NS(=O)(=O)C(F)(F)F [Compound 21] | 90% | 0.12 μg/cm^2 | 100% | 15.0 µg/mL | – |
